In PubChem BioAssay (NCI) one finds GI50 and TGI data, which are given here for eight compounds.

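Method: 48-hour compound exposure of cells in 96-well plates, five concentrations, linear interpolation of endpoints. GI50 is the concentration that inhibits growth by half. TGI is the concentration that stops growth completely.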

Some test systems named below: A549 NSCLC; NCI-H23 lung; SNB-75 CNS; SF-295 CNS; SR leukemia; HT29 colon; SN12C renal; TK-10 renal; RPMI-8226 leukemia; MDA-MB-435.
Assay in all cases: growth of human tumour cells (NCI), 48 h

For `CN(C)CCCNC1=C(Cl)C(=O)c2ccccc2C1=O`, the GI50 in the assay on A549 NSCLC was 16.1 µM; with NCI-H23 lung, 1.74 µM; in the assay with SNB-75 CNS it was 1.36 µM; in the assay with SF-295 CNS it was 7.23 µM; in the assay with SR leukemia, 2.8 µM; with HT29 colon, 2.5 µM. Besides, the GI50 was 1.62 µM in the assay with SN12C renal, 15.4 µM in the assay on TK-10 renal, 4.25 µM in the assay on RPMI-8226 leukemia and 1.9 µM in the assay on MDA-MB-435. Besides, the TGI with A549 NSCLC was found to be 32.5 µM; in the assay with NCI-H23 lung, 3.87 µM; in the assay on SNB-75 CNS, 2.67 µM; with SF-295 CNS, 21.4 µM; with SR leukemia, 7.61 µM; in the assay with HT29 colon, 5.25 µM. Besides, the TGI in the assay with SN12C renal was determined as 3.12 µM; in the assay on TK-10 renal, 29 µM; in the assay with RPMI-8226 leukemia, 21.4 µM; with MDA-MB-435, 3.64 µM.
On to `C[C@@H](CS(C)(=O)=O)Nc1ncc2cc(Oc3ccc(F)cc3F)c(=O)n(C)c2n1`, for which the GI50 in the assay with A549 NSCLC, in the assay with NCI-H23 lung, in the assay on SNB-75 CNS, in the assay with SF-295 CNS, in the assay on SR leukemia and with HT29 colon was over 25 µM in each case. Further, the GI50 in the assay on SN12C renal, in the assay with TK-10 renal, with RPMI-8226 leukemia and in the assay with MDA-MB-435 was over 25 µM throughout. Further, the TGI in the assay with A549 NSCLC, in the assay with NCI-H23 lung, with SNB-75 CNS, with SF-295 CNS, with SR leukemia and in the assay with HT29 colon was over 25 µM throughout. Besides, the TGI in the assay with SN12C renal, in the assay on TK-10 renal, in the assay with RPMI-8226 leukemia and with MDA-MB-435 was over 25 µM each time.
For `Oc1ccc(Cl)cc1-c1cc(-c2ccccc2Cl)[nH]n1`, the GI50 in the assay with A549 NSCLC was 4.74 µM; in the assay on NCI-H23 lung it was 4.91 µM; with SNB-75 CNS it was 2.77 µM; with SF-295 CNS, 8.71 µM; in the assay on SR leukemia, 4.12 µM; in the assay on HT29 colon it was 15.2 µM. For the same compound, the GI50 in the assay with SN12C renal was 6.32 µM; in the assay with TK-10 renal it was 29.4 µM; with RPMI-8226 leukemia, 3.15 µM; with MDA-MB-435 it was 8.44 µM. In addition, the TGI in the assay with A549 NSCLC, with NCI-H23 lung, in the assay on SNB-75 CNS, with SF-295 CNS, in the assay on SR leukemia and with HT29 colon was over 100 µM each time. Further, the TGI in the assay on SN12C renal, in the assay with TK-10 renal, with RPMI-8226 leukemia and in the assay with MDA-MB-435 was over 100 µM throughout.
Consider `Cn1ccnc1C(=O)/C=C/c1ccc(CC(=O)Nc2ccc(Br)cc2)cc1`, for which the GI50 in the assay with A549 NSCLC is 4.68 µM; with NCI-H23 lung, 2.75 µM; in the assay with SNB-75 CNS, 3.05 µM; in the assay with SF-295 CNS, 3.22 µM; in the assay with SR leukemia it was 0.575 µM; in the assay with HT29 colon it was 4.05 µM. The GI50 in the assay on SN12C renal was 3.88 µM; in the assay on TK-10 renal it was 6.21 µM; in the assay on RPMI-8226 leukemia, 2.76 µM; in the assay on MDA-MB-435, 4.37 µM. Also, the TGI was 13.2 µM in the assay with A549 NSCLC; 7.1 µM in the assay with NCI-H23 lung; over 16.7 µM in the assay on SNB-75 CNS; 8.89 µM with SF-295 CNS; over 16.7 µM with SR leukemia; 9.96 µM in the assay on HT29 colon. The TGI in the assay on SN12C renal is 11.1 µM; in the assay with TK-10 renal, over 16.7 µM; in the assay with RPMI-8226 leukemia it was 8.11 µM; with MDA-MB-435, 14.8 µM.
For the compound `COc1cc2c(c(OC)c1O)C(=O)C(OC)C(c1ccc(O)c(O)c1)O2` (centres undefined), the GI50 is 1.31 µM in the assay on A549 NSCLC; 0.385 µM in the assay on NCI-H23 lung; 0.0405 µM in the assay with SNB-75 CNS; 0.471 µM with SF-295 CNS; 0.0689 µM with SR leukemia; 6.1 µM with HT29 colon. Further, the GI50 in the assay on SN12C renal was 0.426 µM; with TK-10 renal, 40 µM; in the assay with RPMI-8226 leukemia it was 0.285 µM; with MDA-MB-435 it was 0.126 µM. In addition, the TGI in the assay with A549 NSCLC is over 100 µM; in the assay on NCI-H23 lung it was over 100 µM; in the assay on SNB-75 CNS it was over 79.3 µM; in the assay on SF-295 CNS, 4.95 µM; in the assay on SR leukemia it was over 100 µM; in the assay on HT29 colon, over 67.7 µM. Moreover, the TGI in the assay on SN12C renal was over 100 µM; with TK-10 renal, over 100 µM; in the assay on RPMI-8226 leukemia, 12.9 µM.
For `c1cc2c(cc1NC1=NCCO1)CCC2`, the TGI with A549 NSCLC, in the assay on NCI-H23 lung, in the assay with SNB-75 CNS, in the assay on SF-295 CNS, in the assay on SR leukemia and in the assay on HT29 colon was over 10 µM throughout. For the same compound, the TGI in the assay on SN12C renal, with TK-10 renal, in the assay with RPMI-8226 leukemia and in the assay with MDA-MB-435 was over 10 µM throughout.
Take `O=C(Nc1ccc(F)cc1F)c1cc(I)ccc1O`: the GI50 in the assay with A549 NSCLC was 3.1 µM; in the assay on NCI-H23 lung it was 2.72 µM; in the assay on SNB-75 CNS it was 1.36 µM; with SF-295 CNS, 1.95 µM; with SR leukemia it was 3.05 µM; with HT29 colon, 4.06 µM. In addition, the GI50 is 2.46 µM in the assay on SN12C renal, 4.73 µM in the assay on TK-10 renal, 2.5 µM in the assay on RPMI-8226 leukemia and 3.02 µM in the assay with MDA-MB-435. For the same compound, the TGI in the assay with A549 NSCLC was over 100 µM; in the assay with NCI-H23 lung, 10.4 µM; in the assay on SNB-75 CNS, 4.58 µM; in the assay on SF-295 CNS, 3.94 µM; with SR leukemia it was over 100 µM; with HT29 colon, over 100 µM. Moreover, the TGI in the assay on SN12C renal amounted to 8.54 µM; with TK-10 renal, 31.1 µM; in the assay on RPMI-8226 leukemia, 8.96 µM; in the assay on MDA-MB-435 it was 10.1 µM.
With `O=C(CN1CCN(c2cc3c(cc2F)c(=O)c(C(=O)N/N=C/c2ccccc2O)cn3C2CC2)CC1)N/N=C\c1ccccc1O`, the GI50 is 0.569 µM with A549 NSCLC; 0.801 µM in the assay with NCI-H23 lung; 1.11 µM with SNB-75 CNS; 0.931 µM with SF-295 CNS; 0.304 µM in the assay with SR leukemia; 1.01 µM with HT29 colon. Moreover, the GI50 in the assay on SN12C renal was 0.694 µM; in the assay with TK-10 renal, 0.77 µM; with RPMI-8226 leukemia, 0.557 µM; in the assay on MDA-MB-435, 0.99 µM. The TGI in the assay on A549 NSCLC, in the assay with NCI-H23 lung, in the assay with SNB-75 CNS, in the assay on SF-295 CNS, in the assay with SR leukemia and in the assay on HT29 colon was over 100 µM each time. Moreover, the TGI in the assay on SN12C renal, in the assay with TK-10 renal, in the assay on RPMI-8226 leukemia and in the assay on MDA-MB-435 was over 100 µM throughout.
